Values after ≈ are worked out from the molar mass of the structure shown. Read-outs that look alike come from different tables or passages of the source.
Experiments:
S. aureus ATCC 29213 = experiment: MIC broth microdilution (NCCLS); format: cell-based, Staphylococcus aureus; details: Staphylococcus aureus, ATCC29213; S. aureus ATCC 29213; read-out: MIC
Method: (§1) Minimal Inhibitory Concentration (MIC) Determination. Bacteria (primary strain panel, TABLE 1). Susceptibility tests were performed following the recommendations from the National Committee for Clinical Standards (NCCLS). The MICs were determined by a broth microdilution technique using a final volume of 100 μl of cation-adjusted Mueller Hinton Broth (MHBCA) and a bacterial inoculum of 10^5-10^6 Colony Forming Units (CFU)/ml. The inocula were verified and precisely determined by applying 10-μl drops of 10-fold dilutions onto Triptic Soy Agar plates. The CFU were counted after an incubation of 24 h at 35° C. Any experiment showing an inoculum that was more or less than 10^5-10^6 CFU/ml was rejected. Control antibiotics and test compounds were prepared at a concentration equivalent to 2-fold the highest desired final concentration. Compounds were then diluted directly in the 96-well microtiter plates by serial 2-fold dilutions using a multichannel pipette. Microtiter plates were incubated during 24 h at 35° C. and growth was recorded by using a microtiterplate reader at 650 nm as well as by visual observation. The MIC was defined as the lowest concentration of compound yielding no visible growth. […] Fastidious bacteria. The medium used for Listeria monocytogenes, Neisseria meningitidis, and Campylobacter jejuni was MHBCA containing 2% laked horse blood. The medium used for Haemophilus influenzae and Branhamella (Moraxella) catarrhalis was HTM as recommended by the NCCLS. Cultures of these fastidious bacteria were incubated at 35° C. in a 5% CO2 atmosphere. […] The medium used for Bacteroides fragilis was Wilkins Chalgren broth and growth was allowed under an anaerobic atmosphere at 35° C. for 48 hours.

E. faecium VanA = experiment: MIC broth microdilution, antibiotic resistant strain panel; format: cell-based; details: Enterococcus faecium; multi-resistant E. faecium VanA; read-out: MIC
Method: as §1
(§2) Finally, compounds were also tested against populations of various clinical strains (antibiotic resistant strain panel, TABLE 1).

S. aureus MRSA COL = experiment: MIC broth microdilution (NCCLS); format: cell-based, Staphylococcus aureus; details: Staphylococcus aureus, MRSA
Method: as §1, with “hours. […]” for “hours.”

B. catarrhalis ATCC 8176 [1] = experiment: Minimal Bactericidal Concentration (MBC); format: cell-based, Branhamella (Moraxella) catarrhalis; details: Moraxella catarrhalis, ATCC8176, 99.9% killing
Method: (§3) Minimal Bactericidal Concentration (MBC). After the microtiter plates were read for the determination of the MIC, a 10-μl sample of each clear well (at least 5 wells without visible growth) was applied onto TSA plates for viable counts determination.
(§4) Petri dishes were incubated at 35° C. for exactly 24 h and bacterial colonies were counted.

E. faecium ATCC 35667 = experiment: MIC broth microdilution (NCCLS); format: cell-based, Enterococcus faecium; details: Enterococcus faecium, ATCC35667, E. faecium ATCC 35667; read-out: MIC
Method: as §1

H. influenzae ATCC 49247 [2] = experiment: Minimal Bactericidal Concentration (MBC); format: cell-based; details: Haemophilus influenzae, ATCC49247, 99.9% killing
Method: as §3, §4

H. influenzae ATCC 49766 [3] = experiment: Minimal Bactericidal Concentration (MBC); format: cell-based; details: Haemophilus influenzae, ATCC49766, 99.9% killing
Method: as §3, §4

S. typhimurium ATCC14028 = experiment: MIC broth microdilution (NCCLS); format: cell-based, Salmonella typhimurium; details: Salmonella enterica; S. typhimurium ATCC14028; read-out: MIC
Method: as §1

E. coli ATCC 25922 = experiment: MIC broth microdilution (NCCLS); format: cell-based, Escherichia coli; details: Escherichia coli, ATCC25922, E. coli ATCC 25922 (Reference); read-out: MIC
Method: as §1

A. baumannii ATCC 19606 = experiment: MIC broth microdilution (NCCLS); format: cell-based, Acinetobacter baumannii; details: Acinetobacter baumannii, ATCC19606, read-out: MIC
Method: as §1

B. catarrhalis ATCC 8176 [4] = experiment: MIC broth microdilution (NCCLS), fastidious bacteria; format: cell-based, Branhamella (Moraxella) catarrhalis; details: Moraxella catarrhalis, ATCC8176, HTM, 5% CO2
Method: as §1

E. faecalis ATCC 29212 = experiment: MIC broth microdilution (NCCLS); format: cell-based, Enterococcus faecalis; details: Enterococcus faecalis, ATCC29212; E. faecalis ATCC 29212; read-out: MIC
Method: as §1

[5] = test system: S. saprophyticus ATCC 15305; experiment: MIC broth microdilution (NCCLS); format: cell-based, Staphylococcus saprophyticus; details: Staphylococcus saprophyticus, ATCC15305; S. saprophyticus ATCC 15305; read-out: MIC
Method: as §1

H. influenzae ATCC 49247 [6] = experiment: MIC broth microdilution (NCCLS), fastidious bacteria; format: cell-based; details: Haemophilus influenzae, ATCC49247, HTM, 5% CO2
Method: as §1

H. influenzae ATCC 49766 [7] = experiment: as above; format: cell-based; details: Haemophilus influenzae, ATCC49766, HTM, 5% CO2
Method: as §1

[8] = test system: S. epidermidis ATCC 12228; experiment: MIC broth microdilution (NCCLS); format: cell-based, Staphylococcus epidermidis; details: Staphylococcus epidermidis, ATCC12228; S. epidermidis ATCC 12228; read-out: MIC
Method: as §1

[9] = test system: Y. enterocolytica ATCC 23715; experiment: MIC broth microdilution (NCCLS); format: cell-based, Yersinia enterocolytica; details: Yersinia, ATCC23715, read-out: MIC
Method: as §1

MRSA strain Sa253c = experiment: MIC broth microdilution, antibiotic resistant strain panel; format: cell-based, Staphylococcus aureus; details: Staphylococcus aureus; multi-resistant MRSA strain Sa253c; read-out: MIC
Method: as §1, §2

MRSA strain Sa228c = experiment: as above; format: cell-based, Staphylococcus aureus; details: Staphylococcus aureus; multi-resistant MRSA strain Sa228c; read-out: MIC
Method: as §1, §2

MRSA strain Sa248c = experiment: as above; format: cell-based, Staphylococcus aureus; details: Staphylococcus aureus; multi-resistant MRSA strain Sa248c; read-out: MIC
Method: as §1, §2

MRSA strain Sa220c = experiment: as above; format: cell-based, Staphylococcus aureus; details: Staphylococcus aureus; multi-resistant MRSA strain Sa220c; read-out: MIC
Method: as §1, §2

MRSA strain Sa234c = experiment: as above; format: cell-based, Staphylococcus aureus; details: Staphylococcus aureus; multi-resistant MRSA strain Sa234c; read-out: MIC
Method: as §1, §2

MRSA strain Sa224c = experiment: as above; format: cell-based, Staphylococcus aureus; details: Staphylococcus aureus; multi-resistant MRSA strain Sa224c; read-out: MIC
Method: as §1, §2

MRSA strain Sa249c = experiment: as above; format: cell-based, Staphylococcus aureus; details: Staphylococcus aureus; multi-resistant MRSA strain Sa249c; read-out: MIC
Method: as §1, §2

MRSA strain Sa211c = experiment: as above; format: cell-based, Staphylococcus aureus; details: Staphylococcus aureus; multi-resistant MRSA strain Sa211c; read-out: MIC
Method: as §1, §2

MRSA strain Sa212c = experiment: as above; format: cell-based, Staphylococcus aureus; details: Staphylococcus aureus; multi-resistant MRSA strain Sa212c; read-out: MIC
Method: as §1, §2

## CO/N=C(\C(=O)N[C@@H]1C(=O)N2C(C(=O)O)=C(COC(C)=O)CS[C@H]12)c1csc(N)n1 [Cefotaxime]
S. aureus ATCC 29213
  MIC: 1 to 2 µg/mL (≈ 2.2 to 4.39 µM)
E. faecium VanA
  MIC: > 128 µg/mL
S. aureus MRSA COL
  MIC: 512 µg/mL (≈ 1120 µM)
B. catarrhalis ATCC 8176 [1]
  MBC: 0.06 µg/mL (≈ 0.132 µM)
E. faecium ATCC 35667
  MIC: 16 µg/mL (≈ 35.1 µM)
H. influenzae ATCC 49247 [2]
  MBC: 0.12 µg/mL (≈ 0.263 µM)
H. influenzae ATCC 49766 [3]
  MBC: 0.008 µg/mL (≈ 0.0176 µM)
S. typhimurium ATCC14028
  MIC: > 2 µg/mL
E. coli ATCC 25922
  MIC: 0.06 to 0.12 µg/mL (≈ 0.132 to 0.263 µM)
A. baumannii ATCC 19606
  MIC: 16 µg/mL (≈ 35.1 µM)
B. catarrhalis ATCC 8176 [4]
  MIC: 0.03 µg/mL (≈ 0.0659 µM)
E. faecalis ATCC 29212
  MIC: 2 to 8 µg/mL (≈ 4.39 to 17.6 µM)
[5]
  MIC: 8 µg/mL (≈ 17.6 µM)
H. influenzae ATCC 49247 [6]
  MIC: 0.12 µg/mL (≈ 0.263 µM)
H. influenzae ATCC 49766 [7]
  MIC: 0.008 µg/mL (≈ 0.0176 µM)
[8]
  MIC: 0.5 to 1 µg/mL (≈ 1.1 to 2.2 µM)
[9]
  MIC: > 2 µg/mL

## CC[C@H]1OC(=O)[C@H](C)[C@@H](O[C@H]2C[C@@](C)(OC)[C@@H](O)[C@H](C)O2)[C@H](C)[C@@H](O[C@@H]2O[C@H](C)C[C@H](N(C)C)[C@H]2O)[C@](C)(O)C[C@@H](C)C(=O)[C@H](C)[C@@H](O)[C@]1(C)O [Erythromycin]
S. aureus ATCC 29213
  MIC: 0.5 µg/mL (≈ 0.681 µM)
S. aureus MRSA COL; S. aureus MRSA COL, read-out: MIC
  MIC: 0.25 µg/mL (≈ 0.341 µM)
B. catarrhalis ATCC 8176 [1]
  MBC: 0.12 µg/mL (≈ 0.164 µM)
MRSA strain Sa253c
  MIC: > 128 µg/mL
MRSA strain Sa228c
  MIC: > 32 µg/mL
MRSA strain Sa248c
  MIC: > 128 µg/mL
MRSA strain Sa220c
  MIC: 0.5 µg/mL (≈ 0.681 µM)
MRSA strain Sa234c
  MIC: > 32 µg/mL
MRSA strain Sa224c
  MIC: > 32 µg/mL
MRSA strain Sa249c
  MIC: > 128 µg/mL
MRSA strain Sa211c
  MIC: > 32 µg/mL
MRSA strain Sa212c
  MIC: > 32 µg/mL
E. faecium ATCC 35667
  MIC: 2 µg/mL (≈ 2.73 µM)
H. influenzae ATCC 49247 [2]
  MBC: 2 µg/mL (≈ 2.73 µM)
H. influenzae ATCC 49766 [3]
  MBC: 16 µg/mL (≈ 21.8 µM)
E. coli ATCC 25922
  MIC: 64 µg/mL (≈ 87.2 µM)
B. catarrhalis ATCC 8176 [4]
  MIC: 0.06 µg/mL (≈ 0.0818 µM)
E. faecalis ATCC 29212
  MIC: 2 to 4 µg/mL (≈ 2.73 to 5.45 µM)
[5]
  MIC: 0.25 µg/mL (≈ 0.341 µM)
H. influenzae ATCC 49247 [6]
  MIC: 2 µg/mL (≈ 2.73 µM)
H. influenzae ATCC 49766 [7]
  MIC: 8 µg/mL (≈ 10.9 µM)
[8]
  MIC: 0.5 µg/mL (≈ 0.681 µM)

Source: patent publication US7410974B2, “Halogenated Quinazolinyl nitrofurans as antibacterial agents” (Ulysses Pharmaceutical Products, Inc., priority 2003, dated 2008)
